Results as given in patent publication US20130324725A1, “AMINOPYRIMIDINES USEFUL AS KINASE INHIBITORS” (VERTEX PHARMACEUTICALS INCORPORATED, priority 2007, published 2013).
Where two headings read alike, the source gives them in different places.

Key:
[1] = tested on: Colo205 cells; test: Analysis of cell proliferation and viability; assay type: cell-based; details: Homo sapiens
Description: Compounds were screened for their ability to inhibit cell proliferation and their effects on cell viability using Colo205 cells obtained from ECACC and using the assay shown below.
Colo205 cells were seeded in 96 well plates and serially diluted compound was added to the wells in duplicate. Control groups included untreated cells, the compound diluent (0.1% DMSO alone) and culture medium without cells. The cells were then incubated for 72 or 96 hrs at 37 C in an atmosphere of 5% CO2/95% humidity.
To measure proliferation, 3 h prior to the end of the experiment 0.5 μCi of 3H thymidine was added to each well. Cells were then harvested and the incorporated radioactivity counted on a Wallac microplate beta-counter. Cell viability was assessed using Promega CellTiter 96AQ to measure MTS conversion. Dose response curves were calculated using either Prism 3.0 (GraphPad) or SoftMax Pro 4.3.1 LS (Molecular Devices) software.

[2] = target: T1, Aurora-2 (Aurora A) (Homo sapiens, UniProt O14965); test: Aurora-2 (Aurora A) inhibition assay, coupled enzyme; assay type: biochemical; details: 400 μM ATP, 30° C.
T1 sequence (O14965 1-403): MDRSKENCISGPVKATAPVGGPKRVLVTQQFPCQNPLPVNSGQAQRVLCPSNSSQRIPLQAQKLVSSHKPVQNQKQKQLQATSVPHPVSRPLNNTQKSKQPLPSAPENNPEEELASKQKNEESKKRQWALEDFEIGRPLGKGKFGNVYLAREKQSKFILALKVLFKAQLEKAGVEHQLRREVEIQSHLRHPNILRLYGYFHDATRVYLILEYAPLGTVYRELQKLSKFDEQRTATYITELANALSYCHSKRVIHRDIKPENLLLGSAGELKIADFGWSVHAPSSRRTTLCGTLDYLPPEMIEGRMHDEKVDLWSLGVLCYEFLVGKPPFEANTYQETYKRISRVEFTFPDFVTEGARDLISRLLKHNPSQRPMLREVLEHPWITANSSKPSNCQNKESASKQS
Description: Compounds were screened for their ability to inhibit Aurora-2 using a standard coupled enzyme assay (Fox et al., Protein Sci., (1998) 7, 2249). Assays were carried out in a mixture of 100 mM Hepes (pH7.5), 10 mM MgCl2, 1 mM DTT, 25 mM NaCl, 2.5 mM phosphoenolpyruvate, 300 μM NADH, 30 μg/ml pyruvate kinase and 10 μg/ml lactate dehydrogenase. Final substrate concentrations in the assay were 400 μM ATP (Sigma Chemicals) and 570 μM peptide (Kemptide, American Peptide, Sunnyvale, Calif.). Assays were carried out at 30° C. and in the presence of 40 nM Aurora-2.
An assay stock buffer solution was prepared containing all of the reagents listed above, with the exception of Aurora-2 and the test compound of interest. 55 μl of the stock solution was placed in a 96 well plate followed by addition of 2 μl of DMSO stock containing serial dilutions of the test compound (typically starting from a final concentration of 7.5 μM). The plate was preincubated for 10 minutes at 30° C. and the reaction initiated by addition of 10 μl of Aurora-2. Initial reaction rates were determined with a Molecular Devices SpectraMax Plus plate reader over a 10 minute time course. IC50 and Ki data were calculated from non-linear regression analysis using the Prism software package (GraphPad Prism version 3.0cx for Macintosh, GraphPad Software, San Diego Calif., USA).

[3] = target: Aurora-1 (Aurora B) (Homo sapiens, UniProt Q96GD4); test: Aurora-1 (Aurora B) inhibition assay (radiometric); assay type: biochemical; details: 800 μM ATP, 25° C.; read-out: Ki, Aurora-1 (Aurora B) radiometric assay (sentence prints Aurora A)
Chain of Aurora-1 (Aurora B) (Q96GD4 whole entry): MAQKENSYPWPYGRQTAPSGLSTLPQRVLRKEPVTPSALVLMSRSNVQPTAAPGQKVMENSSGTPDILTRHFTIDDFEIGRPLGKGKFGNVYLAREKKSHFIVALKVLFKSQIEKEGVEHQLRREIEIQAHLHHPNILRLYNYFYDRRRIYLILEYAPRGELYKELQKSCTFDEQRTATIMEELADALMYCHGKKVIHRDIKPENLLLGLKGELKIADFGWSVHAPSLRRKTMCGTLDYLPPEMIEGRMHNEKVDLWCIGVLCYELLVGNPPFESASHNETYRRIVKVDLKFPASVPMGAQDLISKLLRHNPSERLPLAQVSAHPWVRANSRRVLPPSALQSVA
Description: An assay buffer solution was prepared which consisted of 25 mM HEPES (pH 7.5), 10 mM MgCl2, 0.1% BSA and 10% glycerol. A 22 nM Aurora-B solution, also containing 1.7 mM DTT and 1.5 mM Kemptide (LRRASLG), was prepared in assay buffer. To 22 μL of the Aurora-B solution, in a 96-well plate, was added 2 μl of a compound stock solution in DMSO and the mixture allowed to equilibrate for 10 minutes at 25° C. The enzyme reaction was initiated by the addition of 16 μl stock [γ-^33P]-ATP solution ([…]) prepared in assay buffer, to a final assay concentration of 800 μM. The reaction was stopped after 3 hours by the addition of 16 μL 500 mM phosphoric acid and the levels of ^33P incorporation into the peptide substrate were determined by the following method.
A phosphocellulose 96-well plate (Millipore, Cat no. MAPHNOB50) was pre-treated with 100 μL of a 100 mM phosphoric acid prior to the addition of the enzyme reaction mixture (40 μL). […] Levels of non-enzyme catalyzed background radioactivity were determined by adding 16 μL of the 500 mM phosphoric acid to control wells, containing all assay components (which acts to denature the enzyme), prior to the addition of the [γ-^33P]-ATP solution. Levels of enzyme catalyzed ^33P incorporation were calculated by subtracting mean background counts from those measured at each inhibitor concentration. […]

[4] = target: T2, T315I mutant of human Abl (Homo sapiens, UniProt P00519, T315I); test: Mutant Abl kinase (T315I) activity inhibition assay; assay type: biochemical; details: at Upstate Cell Signaling Solutions
T2 construct: purchased Upstate Cell Signaling Solutions (Dundee, UK), assay run at the vendor
Description: Compounds were screened for their ability to inhibit the T315I mutant form of human Abl at Upstate Cell Signaling Solutions (Dundee, UK). In a final reaction volume of 25 μl, the T315I mutant of human Abl (5-10 mU) was incubated with 8 mM MOPS pH 7.0, 0.2 mM EDTA, 50 μM EAIYAAPFAKKK, 10 mM Mg Acetate, [γ-^33P-ATP](specific activity approx. 500 cpm/pmol, […] final assay concentration) and the test compound of interest at final concentrations over the range […]. The reaction was initiated by the addition of the MgATP mix. After incubation for 40 minutes at room temperature, the reaction was stopped by the addition of 5 μl of a 3% phosphoric acid solution. 10 μl of the reaction was then spotted onto a P30 filtermat and washed three times for 5 minutes in 75 mM phosphoric acid and once in methanol prior to drying and scintillation counting. […]

[5] = COLO 205, 72 hours, read-out: IC50 values after 72 hours
[6] = COLO 205, 96 hours, read-out: IC50 values after 96 hours

Row | IC50 [1, 5] | SMILES | further results
1 | 0.05 to 0.1 µM | Cc1cc(Nc2cc(N3CCN(C4CCCCC4)CC3)nc(Sc3cc(F)c4nc(C)ccc4c3)n2)[nH]n1 [Compound I-1] | 
2 | 0.05 to 0.1 µM | Cc1cc(Nc2cc(N3CCN(C(C)(C)CF)CC3)nc(Sc3ccc4c(c3)CN(CC(F)(F)F)C4=O)n2)[nH]n1 [Compound I-2] | 
3 | < 0.05 µM | Cc1cc(Nc2cc(N3CCN(C4CCCCC4)CC3)nc(Sc3ccc4nc(C(F)(F)F)n(C)c4c3)n2)[nH]n1 [Compound I-3] | IC50 [1, 6]: < 0.05 µM
4 | 0.05 to 0.1 µM | Cc1cc(Nc2cc(N3CCN(C4CC4)CC3)nc(Sc3ccc4nc(C(F)(F)F)[nH]c4c3)n2)[nH]n1 [Compound I-4] | 
5 | < 0.05 µM | Cc1cc(Nc2cc(N3CCN(C4CC4)CC3)nc(Sc3ccc4nc(CC(F)(F)F)n(C)c4c3)n2)[nH]n1 [Compound I-5] | 
6 | < 0.05 µM | Cc1cc(Nc2cc(N3CCN(C(C)(C)CF)CC3)nc(Sc3ccc4nc(CC(F)(F)F)n(C)c4c3)n2)[nH]n1 [Compound I-7] | 
7 | < 0.05 µM | Cc1cc(Nc2cc(N3CCN(C4CCCCC4)CC3)nc(Sc3ccc4nc(C(F)(F)F)[nH]c4c3)n2)[nH]n1 [Compound I-8] | 
8 |  | Cc1cc(Nc2cc(N3CCN(CC(F)(F)F)CC3)nc(Sc3ccc4nc(C(F)(F)F)[nH]c4c3)n2)[nH]n1 [Compound I-9] | Ki [2]: ≤ 0.001 µM; Ki [3]: 0.02 to 0.05 µM
9 | 0.05 to 0.1 µM | Cc1cc(Nc2cc(N3CCN(C4CC4)CC3)nc(Sc3ccc4nc(C(F)(F)F)n(C)c4c3)n2)[nH]n1 [Compound I-10] | IC50 [1, 6]: < 0.05 µM
10 | < 0.05 µM | Cc1cc(Nc2cc(N3CCN(C4CCN(C)CC4)CC3)nc(Sc3ccc4nc(C(F)(F)F)n(C)c4c3)n2)[nH]n1 [Compound I-12] | 
11 | < 0.05 µM | Cc1cc(Nc2cc(N3CCN(C4CCN(C)CC4)CC3)nc(Sc3cc(F)c4nc(C)ccc4c3)n2)[nH]n1 [Compound I-13, 2-(8-fluoro-2-methylquinolin-6-ylthio)-N-(3-methyl-1H-pyrazol-5-yl)-6-(4-(1-methylpiperidin-4-yl)piperazin-1-yl)pyrimidin-4-amine] | 
12 |  | Cc1cc(Nc2cc(N3CCN(C(C)(C)C)CC3)nc(Sc3ccc4c(cnn4C)c3)n2)[nH]n1 [Compound I-16] | IC50 [1, 6]: < 0.05 µM
13 | 0.05 to 0.1 µM | Cc1cc(Nc2cc(N3CCN(C4CCN(C)CC4)CC3)nc(Sc3ccc4nc(C(F)(F)F)ccc4c3)n2)[nH]n1 [Compound I-17] | Ki [4]: < 0.025 µM
14 |  | Cc1cc(Nc2cc(N3CCN(C(C)(C)C)CC3)nc(Sc3ccc4ncn(C)c4c3)n2)[nH]n1 [Compound I-18] | IC50 [1, 6]: < 0.05 µM
15 | < 0.05 µM | Cc1cc(Nc2cc(N3CCN(C4CCCCC4)CC3)nc(Sc3ccc4nc(CC(F)(F)F)n(C)c4c3)n2)[nH]n1 [Compound I-19] | 
16 | < 0.05 µM | Cc1cc(Nc2cc(N3CCN(C4CC4)CC3)nc(Sc3ccc4c(c3)CN(CC(F)(F)F)C4=O)n2)[nH]n1 [Compound I-20] | 
17 | 0.05 to 0.1 µM | Cc1cc(Nc2cc(N3CCN(CC(F)(F)F)CC3)nc(Sc3ccc4c(c3)CN(CC(F)(F)F)C4=O)n2)[nH]n1 [Compound I-24] | 
18 | < 0.05 µM | Cc1cc(Nc2cc(N3CCN(C4CCCCC4)CC3)nc(Sc3ccc4c(c3)CN(CC(F)(F)F)C4=O)n2)[nH]n1 [Compound I-25] | 
